US10752624B2, “Kinase inhibitors” (Origenis GmbH, priority 2012, dated 2020)
pIC50: −log10 of the molar value.

Target: LRRK2 (Homo sapiens, UniProt Q5S007)
Experiment: LRRK2-LRRK2 G2019S-Assay (LanthaScreen Eu Kinase Binding Assay)
Settings: 5 nM LRRK2, 10 nM tracer 236, 2 nM EU-Anti-GST antibody, 1 h at RT; read-out: LRRK2 Activities: IC50
Description: In the assay LanthaScreen™ Eu Kinase Binding Assay by Invitrogen Corporation (Carlsbad) the effect of invention of a compound on the phosphorylation is determined by measurement of fluorescence intensity emission ratio based on the binding and displacement of a proprietary, Alexa Fluor® 647-labeled, ATP-competitive kinase inhibitor scaffold (kinase tracer) to the kinase of interest. Binding of the tracer to the kinase is detected using a europium-labeled anti-tag antibody, which binds to the kinase of interest. Simultaneous binding of both the tracer and antibody to the kinase results in a high degree of FRET (fluorescence resonance energy transfer) from the europium (Eu) donor fluorophore to the Alexa Fluor® 647 acceptor fluorophore on the kinase tracer. Binding of an inhibitor to the kinase competes for binding with the tracer, resulting in a loss of FRET. The fluorescence intensity ratio is directly proportional to the amount of peptide phosphorylation.
To the wells of an 384 well small volume plate (Greiner, Frickenhausen) are added (i) the compound under test in 5% DMSO/distilled water (5 μl), (ii) 5 μl of the kinase antibody mixture resulting in a final concentration 5 nM LRRK2 or their mutants, 2 nM EU-Anti-GST antibody in 1× kinase buffer A. The reaction was started with addition of (iii) 5 μl resulting in a final concentration of 10 nM tracer 236. The assay plate was incubated at RT for 1 h and fluorescence intensity readings were collected using a TECAN M1000 at two wavelengths of λex 340/λem 615 nm and λex 340/λem 665 nm with a delay time of 100 μs and an integration time of 200 μs after 60 minutes. The emission ratio was calculated by division of the acceptor/tracer emission ([…]) by the antibody/donor emission ([…]). The inhibitor concentration was plotted versus the emission ratio to determine the IC50 using XLFit 5.0 (IDBS, Guildford) to fit to a sigmoidal dose response curve with a variable slope.

Sequence of LRRK2 (Q5S007 970-2527 limits assumed): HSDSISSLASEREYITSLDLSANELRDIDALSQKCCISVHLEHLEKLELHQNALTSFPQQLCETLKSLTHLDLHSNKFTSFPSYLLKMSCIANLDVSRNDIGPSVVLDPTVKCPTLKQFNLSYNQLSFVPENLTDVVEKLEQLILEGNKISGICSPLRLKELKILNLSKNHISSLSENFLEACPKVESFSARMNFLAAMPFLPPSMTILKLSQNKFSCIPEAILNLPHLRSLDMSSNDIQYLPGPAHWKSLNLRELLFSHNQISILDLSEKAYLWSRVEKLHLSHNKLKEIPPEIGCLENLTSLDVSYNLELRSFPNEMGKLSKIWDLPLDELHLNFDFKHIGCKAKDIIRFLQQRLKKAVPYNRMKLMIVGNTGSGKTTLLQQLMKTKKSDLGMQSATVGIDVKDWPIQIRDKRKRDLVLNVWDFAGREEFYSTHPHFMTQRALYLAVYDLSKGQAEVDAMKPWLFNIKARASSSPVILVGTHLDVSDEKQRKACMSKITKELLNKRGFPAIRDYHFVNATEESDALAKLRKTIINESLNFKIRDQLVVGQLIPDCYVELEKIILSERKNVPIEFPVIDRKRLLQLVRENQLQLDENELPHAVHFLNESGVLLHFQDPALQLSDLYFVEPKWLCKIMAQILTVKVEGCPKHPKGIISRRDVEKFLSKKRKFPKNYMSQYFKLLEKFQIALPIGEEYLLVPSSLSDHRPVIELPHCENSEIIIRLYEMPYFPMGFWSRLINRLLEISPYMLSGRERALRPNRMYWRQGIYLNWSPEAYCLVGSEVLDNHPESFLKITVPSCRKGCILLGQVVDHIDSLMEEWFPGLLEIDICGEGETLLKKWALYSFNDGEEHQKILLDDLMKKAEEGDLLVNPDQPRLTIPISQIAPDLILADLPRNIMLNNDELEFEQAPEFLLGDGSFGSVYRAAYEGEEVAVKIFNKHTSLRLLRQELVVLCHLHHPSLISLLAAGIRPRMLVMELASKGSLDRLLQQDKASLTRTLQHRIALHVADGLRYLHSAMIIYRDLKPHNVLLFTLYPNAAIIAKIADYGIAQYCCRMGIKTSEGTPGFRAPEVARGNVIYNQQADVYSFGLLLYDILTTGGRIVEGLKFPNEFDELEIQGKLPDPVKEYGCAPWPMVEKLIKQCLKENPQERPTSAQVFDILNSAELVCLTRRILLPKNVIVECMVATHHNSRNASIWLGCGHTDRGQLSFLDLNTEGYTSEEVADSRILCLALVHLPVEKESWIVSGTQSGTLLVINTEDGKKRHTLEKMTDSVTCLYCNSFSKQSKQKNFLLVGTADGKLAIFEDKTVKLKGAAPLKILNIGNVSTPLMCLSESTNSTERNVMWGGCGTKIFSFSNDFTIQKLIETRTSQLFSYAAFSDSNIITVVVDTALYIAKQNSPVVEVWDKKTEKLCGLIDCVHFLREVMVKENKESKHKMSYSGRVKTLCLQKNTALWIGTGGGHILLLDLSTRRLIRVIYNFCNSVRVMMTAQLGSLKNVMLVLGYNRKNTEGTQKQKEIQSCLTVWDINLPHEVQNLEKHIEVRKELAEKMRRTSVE

pIC50	Compound
6.00 to 7.00	Cc1cccc2nc(Nc3ccc(N4CCOCC4)cc3)c3[nH]ncc3c12 [Example 89, 9-methyl-N-(4-morpholinophenyl)-3H-pyrazolo[3,4-c]quinolin-4-amine]
6.00 to 7.00	COc1ccc2nc(Nc3ccc4c(c3)N(C)C(=O)CO4)c3n[nH]cc3c2c1 [Example 322, 6-((8-methoxy-2H-pyrazolo[3,4-c]quinolin-4-yl)amino)-4-methyl-2H-benzo[b][1,4]oxazin-3(4H)-one]
6.00 to 7.00	COc1cc(C(=O)N2CCOCC2)ccc1Nc1nc2cc(S(C)(=O)=O)ccc2c2cn[nH]c12 [Example 194, (3-methoxy-4-((7-(methylsulfonyl)-3H-pyrazolo[3,4-c]quinolin-4-yl)amino)phenyl)(morpholino)methanone]
6.00 to 7.00	COc1ccc2nc(Nc3ccc(F)c(S(C)(=O)=O)c3)c3n[nH]cc3c2c1 [Example 4, N-(4-fluoro-3-(methylsulfonyl)phenyl)-8-methoxy-2H-pyrazolo[3,4-c]quinolin-4-amine]
> 8.00	COc1cccc2nc(Nc3cnn(C4CCOCC4)c3Cl)c3[nH]ncc3c12 [Example 255, N-(5-chloro-1-(tetrahydro-2H-pyran-4-yl)-1H-pyrazol-4-yl)-9-methoxy-3H-pyrazolo[3,4-c]quinolin-4-amine]
7.00 to 8.00	CC(C)(O)Cn1cc(Nc2nc3ccc(S(C)(=O)=O)cc3c3cn[nH]c23)cn1 [Example 317, 2-methyl-1-(4-((8-(methylsulfonyl)-3H-pyrazolo[3,4-c]quinolin-4-yl)amino)-1H-pyrazol-1-yl)propan-2-ol]
7.00 to 8.00	COCCCn1ncc(Nc2nc3ccc(S(C)(=O)=O)cc3c3cn[nH]c23)c1Cl [Example 237, N-(5-chloro-1-(3-methoxypropyl)-1H-pyrazol-4-yl)-8-(methylsulfonyl)-3H-pyrazolo[3,4-c]quinolin-4-amine]
7.00 to 8.00	COCCn1cc(Nc2nc3ccc(S(C)(=O)=O)cc3c3cn[nH]c23)c(C)n1 [Example 209, N-(1-(2-methoxyethyl)-3-methyl-1H-pyrazol-4-yl)-8-(methylsulfonyl)-3H-pyrazolo[3,4-c]quinolin-4-amine]
6.00 to 7.00	COc1ccc2nc(Nc3cnn(C(C)(C)C(N)=O)c3)c3n[nH]cc3c2c1 [Example 164, 2-(4-((8-methoxy-2H-pyrazolo[3,4-c]quinolin-4-yl)amino)-1H-pyrazol-1-yl)-2-methylpropanamide]
> 8.00	COc1cccc2nc(Nc3ccc(N4CCOC4=O)cc3)c3n[nH]cc3c12 [Example 40, 3-(4-((9-methoxy-2H-pyrazolo[3,4-c]quinolin-4-yl)amino)phenyl)oxazolidin-2-one]
> 8.00	CS(=O)(=O)c1ccc2c(c1)nc(Nc1cnn(C3CCOCC3)c1)c1[nH]ncc12 [Example 160, 7-(methylsulfonyl)-N-(1-(tetrahydro-2H-pyran-4-yl)-1H-pyrazol-4-yl)-3H-pyrazolo[3,4-c]quinolin-4-amine]
6.00 to 7.00	COCCn1ncc(Nc2nc3ccc(S(C)(=O)=O)cc3c3cn[nH]c23)c1C [Example 282, N-(1-(2-methoxyethyl)-5-methyl-1H-pyrazol-4-yl)-8-(methylsulfonyl)-3H-pyrazolo[3,4-c]quinolin-4-amine]
7.00 to 8.00	Cc1nn(C(C)C)cc1Nc1nc2ccc(S(C)(=O)=O)cc2c2cn[nH]c12 [Example 217, N-(1-isopropyl-3-methyl-1H-pyrazol-4-yl)-8-(methylsulfonyl)-3H-pyrazolo[3,4-c]quinolin-4-amine]
6.00 to 7.00	COc1cccc2c1nc(Nc1ccc(N3CCOCC3)cc1)c1[nH]ncc12 [Example 304, 6-methoxy-N-(4-morpholinophenyl)-3H-pyrazolo[3,4-c]quinolin-4-amine]
> 8.00	Cc1c(Nc2nc3ccc(S(C)(=O)=O)cc3c3cn[nH]c23)cnn1CCF [Example 270, N-(1-(2-fluoroethyl)-5-methyl-1H-pyrazol-4-yl)-8-(methylsulfonyl)-3H-pyrazolo[3,4-c]quinolin-4-amine]
7.00 to 8.00	COc1cc(OC)c2nc(Nc3ccc(C(=O)N4CCOCC4)cc3)c3[nH]ncc3c2c1 [Example 308, (4-((6,8-dimethoxy-3H-pyrazolo[3,4-c]quinolin-4-yl)amino)phenyl)(morpholino)methanone]
> 8.00	COc1cccc2nc(Nc3cnn(C(C)C)c3C)c3[nH]ncc3c12 [Example 219, N-(1-isopropyl-5-methyl-1H-pyrazol-4-yl)-9-methoxy-3H-pyrazolo[3,4-c]quinolin-4-amine]

pIC50	Compound
6.00 to 7.00	COc1cccc2nc(Nc3ccc(N4CCOCC4=O)cc3)c3[nH]ncc3c12 [Example 60, 4-(4-((9-methoxy-3H-pyrazolo[3,4-c]quinolin-4-yl)amino)phenyl)morpholin-3-one]
6.00 to 7.00	CN1CCN(c2ccc(Nc3nc4cccc(S(C)(=O)=O)c4c4cn[nH]c34)cn2)CC1 [Example 100, N-(6-(4-methylpiperazin-1-yl)pyridin-3-yl)-9-(methylsulfonyl)-3H-pyrazolo[3,4-c]quinolin-4-amine]
7.00 to 8.00	COc1cccc2nc(Nc3ccc(N4CCOCC4)nc3)c3[nH]ncc3c12 [Example 17, 9-methoxy-N-(6-morpholinopyridin-3-yl)-3H-pyrazolo[3,4-c]quinolin-4-amine]
> 8.00	COc1cccc2nc(Nc3cnn(C4(C#N)CCCCC4)c3)c3[nH]ncc3c12 [Example 185, 1-(4-((9-methoxy-3H-pyrazolo[3,4-c]quinolin-4-yl)amino)-1H-pyrazol-1-yl)cyclohexanecarbonitrile]
> 8.00	COc1cccc2nc(Nc3cnn(C4CCOCC4)c3)c3[nH]ncc3c12 [Example 142, 9-methoxy-N-(1-(tetrahydro-2H-pyran-4-yl)-1H-pyrazol-4-yl)-3H-pyrazolo[3,4-c]quinolin-4-amine]
7.00 to 8.00	COc1cccc2c1nc(Nc1cnn(C(C)C)c1)c1[nH]ncc12 [Example 305, N-(1-isopropyl-1H-pyrazol-4-yl)-6-methoxy-3H-pyrazolo[3,4-c]quinolin-4-amine]
6.00 to 7.00	COc1cc(N2CCOC2=O)ccc1Nc1nc2ccc(S(C)(=O)=O)cc2c2cn[nH]c12 [Example 240, 3-(3-methoxy-4-((8-(methylsulfonyl)-3H-pyrazolo[3,4-c]quinolin-4-yl)amino)phenyl)oxazolidin-2-one]
7.00 to 8.00	COCCn1ncc(Nc2nc3ccc(S(C)(=O)=O)cc3c3cn[nH]c23)c1Br [Example 279, N-(5-bromo-1-(2-methoxyethyl)-1H-pyrazol-4-yl)-8-(methylsulfonyl)-3H-pyrazolo[3,4-c]quinolin-4-amine]
6.00 to 7.00	C[C@H]1CCCN1c1cccc(Nc2nc3ccc(S(C)(=O)=O)cc3c3c[nH]nc23)c1 [Example 337, (S)—N-(3-(2-methylpyrrolidin-1-yl)phenyl)-8-(methylsulfonyl)-2H-pyrazolo[3,4-c]quinolin-4-amine]
6.00 to 7.00	COc1ccc2nc(Nc3ccc4c(c3)S(=O)(=O)C=C4)c3n[nH]cc3c2c1 [Example 13, 6-((8-methoxy-2H-pyrazolo[3,4-c]quinolin-4-yl)amino)benzo[b]thiophene 1,1-dioxide]
6.00 to 7.00	COCCCn1cc(Nc2nc3c(OC)cccc3c3cn[nH]c23)cn1 [Example 306, 6-methoxy-N-(1-(3-methoxypropyl)-1H-pyrazol-4-yl)-3H-pyrazolo[3,4-c]quinolin-4-amine]
7.00 to 8.00	COCCn1cc(Nc2nc3cccc(OC)c3c3cn[nH]c23)c(C)n1 [Example 205, 9-methoxy-N-(1-(2-methoxyethyl)-3-methyl-1H-pyrazol-4-yl)-3H-pyrazolo[3,4-c]quinolin-4-amine]
7.00 to 8.00	COCCCn1ncc(Nc2nc3cccc(OC)c3c3cn[nH]c23)c1Cl [Example 235, N-(5-chloro-1-(3-methoxypropyl)-1H-pyrazol-4-yl)-9-methoxy-3H-pyrazolo[3,4-c]quinolin-4-amine]
6.00 to 7.00	COc1ccc2nc(Nc3cnn(C(C)C(=O)O)c3)c3n[nH]cc3c2c1 (stereo not shown) [Example 347, 2-(4-((8-methoxy-2H-pyrazolo[3,4-c]quinolin-4-yl)amino)-1H-pyrazol-1-yl)propanoic acid]
7.00 to 8.00	COc1nn(C2CCN(C(C)(C)C)CC2)cc1Nc1nc2cccc(OC)c2c2cn[nH]c12 [Example 225, N-(1-(1-(tert-butyl)piperidin-4-yl)-3-methoxy-1H-pyrazol-4-yl)-9-methoxy-3H-pyrazolo[3,4-c]quinolin-4-amine]
7.00 to 8.00	COc1cccc2nc(Nc3ccc4c(c3)S(=O)(=O)CC4)c3[nH]ncc3c12 [Example 19, 6-((9-methoxy-3H-pyrazolo[3,4-c]quinolin-4-yl)amino)-2,3-dihydrobenzo[b]thiophene 1,1-dioxide]
7.00 to 8.00	Cc1c(Nc2nc3cc(S(C)(=O)=O)ccc3c3cn[nH]c23)cnn1C(C)C [Example 244, N-(1-isopropyl-5-methyl-1H-pyrazol-4-yl)-7-(methylsulfonyl)-3H-pyrazolo[3,4-c]quinolin-4-amine]
